Data set [1] can be described thus: Oral bioavailability in Han Wistar rat at 1 mg/kg after 24 hrs. Type of data set: ADME, organism-based. As to conditions: in vivo.
Data set [2] in a line: Fraction unbound in human plasma by equilibrium dialysis based LC-MS analysis. Type of data set: ADME, cell-free. (Equilibrium dialysis compares concentrations on both sides of a semipermeable membrane.)
The test system of another data set is Blood. Put plainly: Effect on arachidonic acid pathway in calcium ionophore A23187-stimulated healthy human whole blood assessed as increase in lipoxin level preincubated for 30 mins followed by calcium ionophore A23187 stimulation and measured after 60 mins by LC-MS analysis. Type of data set: functional, tissue-based.
Data set [3] can be described thus: Genotoxicity in Salmonella typhimurium by Ames test. Type of data set: toxicity. To be noted: salmonella enterica subsp. enterica serovar typhimurium.
Data set [4] in a line: Intrinsic clearance in human hepatocytes at 1 uM assessed as per million cells after 2 to 60 mins by LC-MS/MS analysis. Type of data set: ADME, cell-based, Hepatocyte. To be noted: read-out: CLH.
A short description of data set [5]: Effective half life in cynomolgus monkey at 1 mg/kg, iv or 2 mg/kg, po after 48 hrs. Type of data set: ADME, organism-based, Macaca fascicularis. As to conditions: in vivo, read-out: t1/2eff (converted).

In general, bioavailability refers to the share of a dose that reaches the circulation, judged against a reference dose that is usually intravenous. Usually fraction unbound stands for the share of the substance not bound to proteins or other matrix.

`COc1nc(N(CC(C)(C)F)c2cc(Cl)c(F)cc2F)cnc1C(=O)[C@H]1C[C@@H]1C(=O)O` [AZD-9898] displayed a bioavailability in data set [1] of 100%. This compound also returned an unbound share (fraction unbound) in data set [2] of 0.036. Besides, the Activity entry with Blood is “Dose-dependent effect”; in data set [3] it was “Non-Toxic”. Besides, the hepatocyte CLint at 1 µM in data set [4] was under 1.2 µL/min/1e6 cells. Moreover, in data set [5], the half-life is 12 h.

The values above are taken from ChEMBL document CHEMBL4376816, “Discovery of the Oral Leukotriene C4 Synthase Inhibitor (1S,2S)-2-({5-[(5-Chloro-2,4-difluorophenyl)(2-fluoro-2-methylpropyl)amino]-3-methoxypyrazin-2-yl}carbonyl)cyclopropanecarboxylic Acid (AZD9898) as a New Treatment for Asthma” (J Med Chem, 2019).
